Assay results reported in patent US11161830B2, “4-pyridone compound or salt thereof, and pharmaceutical composition and formulation including same” (priority 2017, dated 2021).
pIC50: −log10 of the molar value. Like-named read-outs stand apart in the source and are kept apart here.

What was measured:
[1] = system: HBV; test: Test Example 1-1: anti-HBV assay in HepG2.2.15 cells (test solution 200 μL/well); assay type: cell-based, hepatitis B virus; conditions: culture supernatant
Method: Using HepG2.2.15 cells (Proc. Natl. Acad. Sci. USA, 84, 1005-1009, 1987) which have an HBV genome introduced into a hepatoblastoma cell line, HepG2, and persistently produce a virus, the anti-HBV activity of the representative compounds was evaluated in the following procedure.
(§1) The following was used as a medium:
DMEM/F-12, GlutaMAX (manufactured by Invitrogen)+5 μg/mL insulin (manufactured by Wako)+1% penicillin/streptomycin (manufactured by Sigma)+10 mmol/L HEPES (manufactured by Sigma)+50 μmol/L hydrocortisone (manufactured by Sigma)+10% FBS
A mixture of a test compound with dimethyl sulfoxide (DMSO) was further added to the medium to obtain a final concentration of DMSO of 0.25% (v/v), and thus, test solutions containing the test compound at various concentrations were prepared. In addition, a test solution obtained by adding DMSO alone to the medium to obtain a final concentration of 0.25% (v/v) was prepared as a control without addition of a drug.
(1) The HepG2.2.15 cells were suspended in the medium to prepare a. HepG2.2.15 cell suspension at 4×10^5 cells/mL. The suspension was seeded in a 96-well microtiter plate (100 μL/well) and the plate was incubated in a 5% CO2 incubator at 37° C. for 2 days.
(2) The culture supernatant was removed and the cells were washed twice with PBS (−) (100 μL/well).
(3) The test solution (200 μL/well) was added to the plate of (2) and the plate was incubated in a 5% CO2 incubator at 37° C. for 4 days.
(4) The culture supernatant was removed, the test solution (200 μL/well) was added again to the plate, and the plate was incubated in a 5% CO2 incubator at 37° C. for 3 days.
(5) The culture supernatant was collected and treated with a mixture of Buffer AL (manufactured by QIAGEN) and Proteinase K (manufactured by Invitrogen). The amount of DNA of HBV (HBV-DNA) in the obtained solution was absolutely quantified by a real-time PCR method. In addition, HBsAg (hepatitis B surface antigen) in the culture supernatant was absolutely quantified by chemiluminescent enzyme immunoassay using Lumipulse (registered trademark) HBsAg-HQ (manufactured by Fujirebio Inc.). The relative viral load (%) of a well with the compound added to a well without the compound added was calculated. An IC50 of the compound was calculated using a FORECAST function (linear regression method) of Microsoft Office Excel 2007 by plotting the logarithm of the concentration against the relative viral load as a real number.
The IC50 of HBV-DNA was defined as a concentration (or a logarithm dilution of the culture supernatant) of the compound, in which the amount of HBV-DNA is reduced by 50% as compared a control without the compound added.
In addition, the IC50 of HBsAg was defined as a concentration (or a logarithm dilution of the culture supernatant) of the compound, in which the amount of HBsAg is reduced by 50% as compared a control without the compound added.

[2] = system: HBV (genotype AeUS); test: Test Example 2-1: anti-HBV assay in PXB-cells (fresh human hepatocytes); assay type: cell-based, hepatitis B virus; conditions: Hepatitis B virus, Hepatocyte, PXB-cells infected with HBV genotype AeUS, culture supernatant on day 32 post infection
Method: Using fresh human hepatocytes (PXB-cells, manufactured by PhenixBio Co., Ltd.) collected from a PXB mouse (a chimeric mouse with human hepatocytes), the anti-HBV activity of the representative compounds was evaluated in the following procedure.
as §1
DMEM (manufactured by Sigma)+0.25 μg/mL insulin (manufactured by Wako)+1% penicillin/streptomycin. (manufactured by Sigma)+20 mmol/L HEPES (manufactured by Sigma)+15 μg/mL L-proline (manufactured by Sigma)+50 nmol/L dexamethasone (manufactured by Sigma)+5 ng/mL EGF (manufactured by Peprotech)+0.1 mmol/L ascorbic acid 2-phosphate (manufactured by Wako)+10% FBS+2% DMSO
Each of the test compounds) was further added to the medium to prepare a test solution containing each of the test compounds at various concentrations.
(1) PXB-cells seeded at a seeding density of 2.1×10^5 cells/cm^2 in a 96-well microliter plate were incubated in a 5% CO2 incubator at 37° C. until a day on which the cells were infected.
(2) HBV (genotype AeUS) derived from a PXB mouse serum was suspended in the medium containing 4% PEG-8000, and added to the plate of (1) at about 10 copies/cell such that the PXB cells were infected (100 μL/well), and the plate was incubated in a 5% CO2 incubator at 37° C. for 1 day.
(3) The culture supernatant on day 1 post infection was removed and the cells were washed three times with DMEM containing 10% FBS and 1% penicillin/streptomycin. Then, the medium was added to the plate (100 μL/well) and the plate was incubated in a 5% CO2 incubator at 37° C. for 1 day.
(4) The culture supernatant on day 2 post infection was removed and the cells were washed three times with DMEM containing 10% FBS and 1% penicillin/streptomycin. Then, the medium was added to the plate (100 μL/well) and the plate was incubated in a 5% CO2 incubator at 37° C. for 5 days.
(5) The culture supernatant on day 7 post infection was removed, the medium was added to the plate (100 μL/well), and the plate was incubated in a 5% CO2 incubator at 37° C. for 5 days.
(6) The culture supernatant on day 12 post infection was removed, the medium was added to the plate (100 μL/well), and the plate was incubated in a 5% CO2 incubator at 37° C. for 5 days.
(§2) (7) The culture supernatant on day 17 post infection was removed, the test solution was added to the plate (100 μL/well), and the plate was incubated in a 5% CO2 incubator at 37° C. for 5 days. As a control without the compound added, the medium was added to the plate (100 μL/well) and the plate was incubated in a 5% CO2 incubator at 37° C. for 5 days.
as §2, with “(8)” for “(7)”, “22” for “17”
as §2, with “(9)” for “(7)”, “27” for “17”
(10) The culture supernatant on day 32 post infection was collected.
(11) The collected culture supernatant on day 32 post infection was purified with a QIAamp (registered trademark) DNA Blood Mini Kit (manufactured by QIAGEN). The amount of HBV-DNA in the obtained solution was absolutely quantified by a real-time PCR method. In addition, the amount of HBsAg in the culture supernatant was absolutely quantified by chemiluminescent enzyme immunoassay using Lumipulse (registered trademark) HBsAg-HQ (manufactured by Fujirebio Inc.). A relative viral load (%) with respect to a control without the compound added was each calculated. […]

[3] = Hepatitis B virus, read-out: IC50 HBV-DNA
[4] = Hepatitis B virus, read-out: IC50 HBsAg

Structure (SMILES) | pIC50 [1, 3] | pIC50 [1, 4] | also measured
COc1cc(-c2cc(=O)c(C(=O)O)cn2-c2ccc3nc(N4CCOCC4)sc3c2)ccc1N1CCCC1 [Example 4-2, 6-(3-methoxy-4-(pyrrolidin-1-yl)phenyl)-1-(2-morpholinobenzo[d]thiazol-6-yl)-4-oxo-1,4-dihydropyridine-3-carboxylic acid] | 7.96 | 8.28 | –
O=C(O)c1cn(-c2ccc3ncsc3c2)c(-c2ccc(-c3ccc(F)cc3)s2)cc1=O [Example 14, 1-(Benzo[d]thiazol-6-yl)-6-(5-(4-fluorophenyl)thiophen-2-yl)-4-oxo-1,4-dihydropyridine-3-carboxylic acid] | 7.00 | 7.04 | –
COc1nc2ccc(-n3cc(C(=O)O)c(=O)cc3-c3ccc(N4CCCC4)cc3)cc2s1 [Example 3-5, 1-(2-methoxybenzo[d]thiazol-6-yl)-4-oxo-6-(4-(pyrrolidin-1-yl)phenyl)-1,4-dihydropyridine-3-carboxylic acid] | 8.40 | 8.10 | –
COCCN(CCOC)c1nc2ccc(-n3cc(C(=O)O)c(=O)cc3-c3ccc(N4CCCC4)c(Br)c3)cc2s1 [Example 5-3, 1-(2-(bis(2-methoxyethyl)amino)benzo[d]thiazol-6-yl)-6-(3-bromo-4-(pyrrolidin-1-yl)phenyl)-4-oxo-1,4-dihydropyridine-3-carboxylic acid] | – | – | pIC50 ([2]; read-out: IC50 HBV-DNA): 7.60; pIC50 ([2]; read-out: IC50 HBsAg): 7.28
COCCN1CCN(c2nc3ccc(-n4cc(C(=O)O)c(=O)cc4-c4ccc(N5CC[C@@H](OC)C5)c(Cl)c4)cc3s2)CC1 [Example 12-2, (R)-6-(3-chloro-4-(3-methoxypyrrolidin-1-yl)phenyl)-1-(2-(4-(2-methoxyethyl)piperazin-1-yl)benzo[d]thiazol-6-yl)-4-oxo-1,4-dihydropyridine-3-carboxylic acid] | – | – | pIC50 ([2]; read-out: IC50 HBV-DNA): 7.55; pIC50 ([2]; read-out: IC50 HBsAg): 7.38
COC[C@H]1CCCN1c1nc2ccc(-n3cc(C(=O)O)c(=O)cc3-c3ccc(N4CCCC4)c(Br)c3)cc2s1 [Example 5-6, (R)-6-(3-bromo-4-(pyrrolidin-1-yl)phenyl)-1-(2-(2-(methoxymethyl)pyrrolidin-1-yl)benzo[d]thiazol-6-yl)-4-oxo-1,4-dihydropyridine-3-carboxylic acid] | – | – | pIC50 ([2]; read-out: IC50 HBV-DNA): 7.39; pIC50 ([2]; read-out: IC50 HBsAg): 7.21
O=C(O)c1cn(-c2ccc3nc(N4CCOCC4)sc3c2)c(-c2ccc(N3CCCC3)c(Cl)c2)cc1=O [Example 6-1, 6-(3-chloro-4-(pyrrolidin-1-yl)phenyl)-1-(2-morpholinebenzo[d]thiazol-6-yl)-4-oxo-1,4-dihydropyridine-3-carboxylic acid] | – | – | pIC50 ([1]; read-out: IC50 HBV-DNA): 8.00; pIC50 ([1]; read-out: IC50 HBsAg): 8.42
CCN1CCN(c2nc3ccc(-n4cc(C(=O)O)c(=O)cc4-c4ccc(N5CCCC5)cc4)cc3s2)CC1 [Example 3-9, 1-(2-(4-ethylpiperazin-1-yl)benzo[d]thiazol-6-yl)-4-oxo-6-(4-(pyrrolidin-1-yl)phenyl)-1,4-dihydropyridine-3-carboxylic acid] | 8.46 | 8.22 | –
COCCN(CCOC)c1nc2ccc(-n3cc(C(=O)O)c(=O)cc3-c3ccc(N4CCCC4)cc3)cc2s1 [Example 3-6, 1-(2-(bis(2-methoxyethyl)amino)benzo[d]thiazol-6-yl)-4-oxo-6-(4-(pyrrolidin-1-yl)phenyl)-1,4-dihydropyridine-3-carboxylic acid] | 8.41 | 8.52 | –
Cc1nc2ccc(-n3cc(C(=O)O)c(=O)cc3-c3ccc(N4CC[C@@H](OCc5ccc(F)cc5)C4)cc3)cc2s1 [Example 8, (R)-6-(4-(3-((4-Fluorobenzyl)oxy)pyrrolidin-1-yl)phenyl)-1-(2-methylbenzo[d]thiazol-6-yl)-4-oxo-1,4-dihydropyridine-3-carboxylic acid] | 7.70 | 7.72 | –
Cc1nc2ccc(-n3cc(C(=O)O)c(=O)cc3-c3ccc(N(C)C)cc3)cc2s1 [Example 1, 6-(4-(dimethylamino)phenyl)-1-(2-methylbenzo[d]thiazol-6-yl)-4-oxo-1,4-dihydropyridine-3-carboxylic acid] | 6.92 | 6.92 | –
O=C(O)c1cn(-c2ccc3nc(N4CCOCC4)sc3c2)c(-c2ccc(N3CCCC3)c(Br)c2)cc1=O [Example 5-2, 6-(3-bromo-4-(pyrrolidin-1-yl)phenyl)-1-(2-morpholinobenzo[d]thiazol-6-yl)-4-oxo-1,4-dihydropyridine-3-carboxylic acid] | 8.92 | 8.80 | –
COc1cc(-c2cc(=O)c(C(=O)O)cn2-c2ccc3nc(C)sc3c2)ccc1N1CCCC1 [Example 4-1, 6-(3-methoxy-4-(pyrrolidin-1-yl)phenyl-1)-(2-methylbenzo[d]thiazol-6-yl)-4-oxo-1,4-dihydropyridine-3-carboxylic acid] | – | – | pIC50 ([1]; read-out: IC50 HBV-DNA): 7.74; pIC50 ([1]; read-out: IC50 HBsAg): 7.74
O=C(O)c1cn(-c2ccc3nc(NCc4ccccn4)sc3c2)c(-c2ccc(N3CCCC3)cc2)cc1=O [Example 3-12, 4-oxo-1-(2-((pyridin-2-ylmethyl)amino)benzo[d]thiazol-6-yl)-6-(4-(pyrrolidin-1-yl)phenyl)-1,4-dihydropyridine-3-carboxylic acid] | 8.54 | 8.62 | –
